Reference: PubChem BioAssay AID248 (DTP/NCI, 2004)
Values joined by “and” are separate entries in the source; they are usually repeats but may differ in a detail not shown here. Equal values may be shown once. Toxic doses and inconclusive results are not listed. No stated cut-off is given here; in the data, active means T/C of 150% or more; inactive means T/C below 125%.

Test system: L1210 leukemia ip in BDF1 mice, survival T/C
Assay: NCI In Vivo Anticancer Drug Screen. Data for tumor model L1210 Leukemia (intraperitoneal) in B6D2F1 (BDF1) mice
Details: endpoint: mean survival time, higher = longer survival
Outline: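 In this screen, tumor-bearing mice given compound are compared to those given vehicle, and their survival values are reported as a treated-to-control quotient.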

[1] = dose: 100.0 mg/kg/injection, schedule: Q04DX003 (ip), vehicle: saline
[2] = dose: 200.0 mg/kg/injection, schedule: Q04DX003 (ip), vehicle: saline
[3] = dose: 400.0 mg/kg/injection, schedule: Q04DX003 (ip), vehicle: saline
[4] = dose: 50.0 mg/kg/injection, schedule: Q01DX001 (ip), vehicle: carboxymethylcellulose (CMC)
[5] = dose: 100.0 mg/kg/injection, schedule: Q01DX001 (ip), vehicle: carboxymethylcellulose (CMC)
[6] = dose: 200.0 mg/kg/injection, schedule: Q01DX001 (ip), vehicle: carboxymethylcellulose (CMC)
[7] = dose: 400.0 mg/kg/injection, schedule: Q01DX001 (ip), vehicle: carboxymethylcellulose (CMC)
[8] = dose: 100.0 mg/kg/injection, schedule: Q01DX001 (ip), vehicle: other
[9] = dose: 200.0 mg/kg/injection, schedule: Q01DX001 (ip), vehicle: other
[10] = dose: 400.0 mg/kg/injection, schedule: Q01DX001 (ip), vehicle: other
[11] = dose: 100.0 mg/kg/injection, schedule: Q01DX009 (ip), vehicle: saline
[12] = dose: 200.0 mg/kg/injection, schedule: Q01DX009 (ip), vehicle: saline
[13] = dose: 100.0 mg/kg/injection, schedule: Q01DX009 (ip), vehicle: saline with Tween-80
[14] = dose: 100.0 mg/kg/injection, schedule: Q04DX003 (ip), vehicle: saline with Tween-80
[15] = dose: 100.0 mg/kg/injection, schedule: Q04DX003 (ip), vehicle: Klucel (hydroxypropylcellulose) (HPC)
[16] = dose: 200.0 mg/kg/injection, schedule: Q01DX001 (ip), vehicle: Klucel (hydroxypropylcellulose) (HPC)
[17] = dose: 200.0 mg/kg/injection, schedule: Q04DX003 (ip), vehicle: Klucel (hydroxypropylcellulose) (HPC)
[18] = dose: 400.0 mg/kg/injection, schedule: Q04DX003 (ip), vehicle: Klucel (hydroxypropylcellulose) (HPC)
[19] = dose: 25.0 mg/kg/injection, schedule: Q01DX009 (ip), vehicle: saline
[20] = dose: 25.0 mg/kg/injection, schedule: Q04DX003 (ip), vehicle: saline
[21] = dose: 50.0 mg/kg/injection, schedule: Q01DX009 (ip), vehicle: saline
[22] = dose: 50.0 mg/kg/injection, schedule: Q04DX003 (ip), vehicle: saline
[23] = dose: 100.0 mg/kg/injection, schedule: Q01DX009 (ip), vehicle: Klucel (hydroxypropylcellulose) (HPC)
[24] = dose: 75.0 mg/kg/injection, schedule: Q01DX001 (ip), vehicle: saline
[25] = dose: 150.0 mg/kg/injection, schedule: Q01DX001 (ip), vehicle: saline
[26] = dose: 200.0 mg/kg/injection, schedule: Q01DX001 (ip), vehicle: saline

Measured: T/C

COc1ccc(CCN=C(c2ccccc2)c2ccccc2)cc1OC
inactive: [1] 94 % of control | [2] 94 % of control | [3] 97 % of control

O=C1c2ccccc2-c2cc(F)cc(F)c21
inactive: [4] 104 % of control | [5] 102 % of control | [6] 102 % of control | [7] 102 % of control

CC(C)CC(NS(=O)(=O)Cc1ccccc1)C(=O)NNc1ccccc1 (centres undefined)
inactive: [8] 97 % of control | dose: 100.0 mg/kg/injection, schedule: Q04DX003 (ip), vehicle: other 95 % of control | [9] 94 % of control | dose: 200.0 mg/kg/injection, schedule: Q04DX003 (ip), vehicle: other 91 % of control | [10] 92 % of control

C=CCOCC(O)CO (centres undefined)
inactive: [11] 108 % of control | [12] 94 % of control | dose: 400.0 mg/kg/injection, schedule: Q01DX009 (ip), vehicle: saline 103 % of control

O=C(N/N=C/C1CC2C=CC1C2)c1ccncc1 (centres undefined)
inactive: dose: 25.0 mg/kg/injection, schedule: Q01DX009 (ip), vehicle: saline with Tween-80 100 % of control | dose: 50.0 mg/kg/injection, schedule: Q01DX009 (ip), vehicle: saline with Tween-80 102 % of control | [13] 95 % of control and 103 % of control

O=C(CCCCCCCCC(=O)OO)OO (tested in a mixture with another compound)
inactive: [14] 98 % of control | dose: 200.0 mg/kg/injection, schedule: Q04DX003 (ip), vehicle: saline with Tween-80 92 % of control | dose: 400.0 mg/kg/injection, schedule: Q04DX003 (ip), vehicle: saline with Tween-80 90 % of control

CCCN1CCc2cc(OC)c(OC)cc2C1Cc1ccc(OC)c(OC)c1 (centres undefined)
inactive: dose: 75.0 mg/kg/injection, schedule: Q01DX001 (ip), vehicle: other 109 % of control | dose: 150.0 mg/kg/injection, schedule: Q01DX001 (ip), vehicle: other 102 % of control

c1ccc(-c2csc3cccc[n+]23)cc1
inactive: [14] 102 % of control

Clc1ccc2c(c1)C(N1CCOCC1)c1cc(Cl)cc(Cl)c1-2 (centres undefined)
inactive: dose: 100.0 mg/kg/injection, schedule: Q01DX001 (ip), vehicle: Klucel (hydroxypropylcellulose) (HPC) 102 % of control | [15] 98 % of control | [16] 92 % of control | [17] 96 % of control | dose: 400.0 mg/kg/injection, schedule: Q01DX001 (ip), vehicle: Klucel (hydroxypropylcellulose) (HPC) 96 % of control | [18] 94 % of control

COc1ccc2cc[n+](C)cc2c1
inactive: dose: 12.5 mg/kg/injection, schedule: Q01DX009 (ip), vehicle: saline 101 % of control | [19] 110 % of control | [20] 100 % of control | [21] 110 % of control | [22] 96 % of control

CCOC(=O)C1C(C)NC(C)C(C(=O)OCC)C1c1ccccc1Cl (centres undefined)
inactive: [23] 97 % of control | dose: 200.0 mg/kg/injection, schedule: Q01DX009 (ip), vehicle: Klucel (hydroxypropylcellulose) (HPC) 98 % of control | dose: 400.0 mg/kg/injection, schedule: Q01DX009 (ip), vehicle: Klucel (hydroxypropylcellulose) (HPC) 93 % of control

C[N+](C)(C)Cn1nnc2ccccc21
inactive: [24] 105 % of control | [25] 108 % of control

COc1cc(-c2c3c(cc4c2OCO4)CC(O)C(C(=O)O)C3)cc(OC)c1OC (centres undefined)
inactive: [24] 95 % of control | [25] 116 % of control | [16] 109 % of control | [26] 114 % of control | dose: 300.0 mg/kg/injection, schedule: Q01DX001 (ip), vehicle: Klucel (hydroxypropylcellulose) (HPC) 116 % of control

CCCCN(CCCC)C(=O)C1C=C2c3cccc4[nH]cc(c34)CC2N(C)C1 (centres undefined)
inactive: dose: 100.0 mg/kg/injection, schedule: Q01DX009 (ip), vehicle: water 104 % of control | dose: 200.0 mg/kg/injection, schedule: Q01DX009 (ip), vehicle: water 110 % of control

COc1ccc(OC)c2c(OC(C)=O)c3ccccc3c(OC(C)=O)c12
inactive: [4] 98 % of control | [5] 108 % of control | [6] 98 % of control | [7] 110 % of control

CN(C)C(Cc1ccccc1)(C(=O)O)c1ccccc1 (centres undefined)
inactive: dose: 100.0 mg/kg/injection, schedule: Q01DX001 (ip), vehicle: saline 96 % of control | [26] 91 % of control | dose: 400.0 mg/kg/injection, schedule: Q01DX001 (ip), vehicle: saline 88 % of control

CCCC(C)C(=O)Nc1cccc(OC(=O)NC(C)(C)C)c1 (centres undefined)
inactive: [13] 92 % of control | dose: 200.0 mg/kg/injection, schedule: Q01DX009 (ip), vehicle: saline with Tween-80 89 % of control | dose: 400.0 mg/kg/injection, schedule: Q01DX009 (ip), vehicle: saline with Tween-80 87 % of control

CCCCOCCOc1ccc(C(=O)OC)cc1
inactive: dose: 100.0 mg/kg/injection, schedule: Q04DX003 (ip), vehicle: saline sonified 101 % of control | dose: 200.0 mg/kg/injection, schedule: Q04DX003 (ip), vehicle: saline sonified 111 % of control | dose: 400.0 mg/kg/injection, schedule: Q04DX003 (ip), vehicle: saline sonified 101 % of control

CCCOC(=O)NNC(=O)OCCC
inactive: dose: 75.0 mg/kg/injection, schedule: Q01DX009 (ip), vehicle: Klucel (hydroxypropylcellulose) (HPC) 93 % of control

CO/N=C(/CSS(=O)(=O)O)c1ccccc1
inactive: dose: 100.0 mg/kg/injection, schedule: Q04DX002 (ip), vehicle: Klucel (hydroxypropylcellulose) (HPC) 96 % of control | dose: 200.0 mg/kg/injection, schedule: Q04DX002 (ip), vehicle: Klucel (hydroxypropylcellulose) (HPC) 96 % of control | dose: 400.0 mg/kg/injection, schedule: Q04DX002 (ip), vehicle: Klucel (hydroxypropylcellulose) (HPC) 96 % of control

c1ccc2c(c1)CCc1ccccc1CN(CCN1CCCC1)C2
inactive: dose: 25.0 mg/kg/injection, schedule: Q01DX009 (ip), vehicle: Klucel (hydroxypropylcellulose) (HPC) 96 % of control | [23] 99 % of control

Nc1ccc2c(c1)-c1ccc(F)cc1C2
inactive: [5] 89 % of control | [6] 100 % of control | [7] 94 % of control

CC(=O)OC1(C(C)(C)C)C(=O)C(=[N+]=[N-])C(O)(C(C)(C)C)C(=O)C1=[N+]=[N-] (centres undefined)
inactive: [8] 97 % of control | [9] 97 % of control | [10] 97 % of control

CS(=O)(=O)Oc1nn2c(OS(C)(=O)=O)nnc2s1
inactive: dose: 5.0 mg/kg/injection, schedule: Q01DX001 (ip), vehicle: saline 104 % of control | dose: 8.8 mg/kg/injection, schedule: Q01DX001 (ip), vehicle: saline 101 % of control and 90 % of control | dose: 10.0 mg/kg/injection, schedule: Q01DX001 (ip), vehicle: saline 109 % of control | dose: 13.3 mg/kg/injection, schedule: Q01DX001 (ip), vehicle: saline 98 % of control and 110 % of control | dose: 20.0 mg/kg/injection, schedule: Q01DX001 (ip), vehicle: saline 98 % of control and 104 % of control | dose: 30.0 mg/kg/injection, schedule: Q01DX001 (ip), vehicle: saline 104 % of control

CCCCN(C)N=Nc1ccc(C(N)=O)cc1
inactive: dose: 20.0 mg/kg/injection, schedule: Q01DX Z (ip), vehicle: carboxymethylcellulose (CMC) 98 % of control | dose: 40.0 mg/kg/injection, schedule: Q01DX Z (ip), vehicle: carboxymethylcellulose (CMC) 101 % of control | dose: 60.0 mg/kg/injection, schedule: Q01DX Z (ip), vehicle: carboxymethylcellulose (CMC) 104 % of control

Cc1cc(Cl)c2ccccc2[n+]1C
inactive: [1] 98 % of control

[N-]=[N+]=Nc1cccc[n+]1[O-]
inactive: [15] 105 % of control | [17] 109 % of control | [18] 105 % of control

COc1cc(C(=O)Nc2ccc(N(C)C)cc2)cc(OC)c1OC
inactive: [19] 103 % of control | [20] 108 % of control | [21] 108 % of control | [22] 97 % of control | [11] 97 % of control | [1] 100 % of control | [12] 104 % of control | [2] 103 % of control | [3] 100 % of control
